Non-standard residues stand in square brackets, D forms with d. Residues, ends and D or L forms follow the SMILES beside them. Cit = NC(=O)NCCC[C@H](N)C(=O)O
The compounds below were run against T1, DR0401 protein (Homo sapiens, UniProt P01903+P01911, A100K/A169T/F76Y/I96L/K127E/L162R/M171V/N62H/P40V/Q125Y/R42H/S133A/S149N/S66Y/V115G/V209L/W38E) (assay: DR0401 peptide binding competition assay). Details: Supplementary Table 2; competition with biotin-HA306-318 0.02 μM; read-out: IC50 (Binding of Predicted Glucokinase Peptides to DR04:01).
T1 construct: made in house; host or cells: insect cell cultures

IC50 [µM] | Structure (SMILES)
> 50 | CC(C)C[C@H](NC(=O)[C@H](CCCCN)NC(=O)[C@H](Cc1ccc(O)cc1)NC(=O)[C@@H](NC(=O)[C@H](CO)NC(=O)CN)C(C)C)C(=O)N[C@@H](Cc1c[nH]cn1)C(=O)N1CCC[C@H]1C(=O)N[C@@H](CO)C(=O)N[C@@H](Cc1ccccc1)C(=O)N[C@@H](CCCCN)C(=O)N[C@@H](CCC(=O)O)C(=O)N[C@@H](CCCNC(N)=O)C(=O)N[C@@H](Cc1ccccc1)C(=O)N[C@@H](Cc1c[nH]cn1)C(=O)O [GK 410-424] (H-GSVYKLHPSFKE[Cit]FH-OH; N-terminus and C-terminus assumed)
> 50 | CC[C@H](C)[C@H](NC(=O)[C@@H](NC(=O)CNC(=O)[C@H](C)N)C(C)C)C(=O)N[C@@H](CC(N)=O)C(=O)N[C@@H](CCCNC(N)=O)C(=O)N[C@@H](CCSC)C(=O)N[C@@H](CCCNC(N)=O)C(=O)N[C@@H](CCC(=O)O)C(=O)N[C@@H](CO)C(=O)N[C@@H](CCCNC(N)=O)C(=O)N[C@@H](CO)C(=O)N[C@@H](CCC(=O)O)C(=O)N[C@@H](CC(=O)O)C(=O)N[C@H](C(=O)O)C(C)C [GK 387-401] (H-AGVIN[Cit]M[Cit]ES[Cit]SEDV-OH; N-terminus and C-terminus assumed)
> 50 | CC(C)[C@H](NC(=O)[C@H](CCC(N)=O)NC(=O)[C@H](CO)NC(=O)[C@@H](NC(=O)[C@H](Cc1ccccc1)NC(=O)[C@H](CCCNC(N)=O)NC(=O)[C@@H](NC(=O)[C@@H](N)CCC(=O)O)[C@@H](C)O)C(C)C)C(=O)N[C@@H](CCC(=O)O)C(=O)N[C@@H](CO)C(=O)N[C@@H](CC(=O)O)C(=O)N[C@H](C(=O)NCC(=O)N[C@@H](CC(=O)O)C(=O)O)[C@@H](C)O [GK 331-344] (H-ET[Cit]FVSQVESDTGD-OH; N-terminus and C-terminus assumed)
> 50 | CC(C)C[C@H](NC(=O)[C@H](CCCNC(N)=O)NC(=O)[C@H](CCCNC(=N)N)NC(=O)[C@@H](NC(=O)[C@H](CO)NC(=O)[C@H](C)NC(=O)[C@H](Cc1c[nH]cn1)NC(=O)[C@H](Cc1ccccc1)NC(=O)[C@H](CCCNC(N)=O)NC(=O)[C@H](CCC(=O)O)NC(=O)[C@H](CCCCN)NC(=O)[C@H](Cc1ccccc1)NC(=O)[C@H](CO)NC(=O)[C@@H]1CCCN1C(=O)[C@@H](N)Cc1c[nH]cn1)C(C)C)C(=O)O [GK 416-439] (H-HPSFKE[Cit]FHASVR[Cit]L-OH; N-terminus and C-terminus assumed)
4.3 | CSCC[C@H](NC(=O)[C@H](Cc1ccc(O)cc1)NC(=O)[C@H](CCCCN)NC(=O)CNC(=O)CN)C(=O)NCC(=O)N[C@@H](CCC(=O)O)C(=O)N[C@@H](CC(C)C)C(=O)N[C@H](C(=O)N[C@@H](CCCNC(N)=O)C(=O)N[C@@H](CC(C)C)C(=O)N[C@H](C(=O)N[C@@H](CC(C)C)C(=O)N[C@@H](CC(C)C)C(=O)N[C@@H](CCCNC(=N)N)C(=O)O)C(C)C)C(C)C [GK 294-308] (H-GGKYMGELV[Cit]LVLLR-OH)

Continued, compound first:

Structure (SMILES) | IC50 [µM]
CC[C@H](C)[C@H](NC(=O)[C@H](CC(=O)O)NC(=O)[C@H](CS)NC(=O)[C@H](CC(=O)O)NC(=O)[C@@H](NC(=O)[C@@H](NC(=O)[C@H](CO)NC(=O)[C@@H]1CCCN1C(=O)[C@H](CCCNC(N)=O)NC(=O)[C@H](CC(C)C)NC(=O)CNC(=O)[C@H](CC(C)C)NC(=O)[C@@H](NC(=O)[C@H](CO)NC(=O)[C@@H](N)CC(C)C)[C@@H](C)O)[C@@H](C)O)[C@@H](C)O)C(=O)O [GK 352-366] (H-LSTLGL[Cit]PSTTDCDI-OH; N-terminus and C-terminus assumed) | > 50
CC(C)C[C@H](NC(=O)[C@H](CCC(N)=O)NC(=O)[C@H](CCC(=O)O)NC(=O)[C@H](CO)NC(=O)[C@H](C)NC(=O)[C@H](CCC(=O)O)NC(=O)CNC(=O)[C@H](Cc1c[nH]cn1)NC(=O)[C@H](Cc1ccccc1)NC(=O)[C@H](CC(C)C)NC(=O)[C@H](CC(C)C)NC(=O)[C@H](CC(N)=O)NC(=O)[C@H](CCC(=O)O)NC(=O)[C@@H](N)CC(=O)O)C(=O)O [GK 311-324] (H-DENLLFHGEASEQL-OH; N-terminus and C-terminus assumed) | > 50
CC(C)C[C@H](N)C(=O)N1CCC[C@H]1C(=O)N[C@H](C(=O)N[C@@H](Cc1ccc(O)cc1)C(=O)N[C@H](C(=O)N[C@@H](CCCNC(N)=O)C(=O)N[C@@H](CO)C(=O)N[C@H](C(=O)N1CCC[C@H]1C(=O)N[C@@H](CCC(=O)O)C(=O)NCC(=O)N[C@@H](CO)C(=O)N[C@@H](CCC(=O)O)C(=O)N[C@H](C(=O)NCC(=O)O)C(C)C)[C@@H](C)O)C(C)C)[C@@H](C)O [GK 58-72] (H-LPTYV[Cit]STPEGSEVG-OH) | 30.9
CSCC[C@H](NC(=O)[C@H](CCCCN)NC(=O)[C@@H](NC(=O)[C@@H](N)CO)C(C)C)C(=O)N[C@@H](CC(C)C)C(=O)N1CCC[C@H]1C(=O)N[C@H](C(=O)N[C@@H](Cc1ccc(O)cc1)C(=O)N[C@H](C(=O)N[C@@H](CCCNC(N)=O)C(=O)N[C@@H](CO)C(=O)N[C@H](C(=O)N1CCC[C@H]1C(=O)N[C@@H](CCC(=O)O)C(=O)NCC(=O)O)[C@@H](C)O)C(C)C)[C@@H](C)O [GK 54-68] (H-SVKMLPTYV[Cit]STPEG-OH; N-terminus and C-terminus assumed) | > 50
CC[C@H](C)[C@H](NC(=O)[C@H](CCCNC(N)=O)NC(=O)[C@H](CCSC)NC(=O)[C@@H](NC(=O)[C@H](CC(=O)O)NC(=O)[C@H](CCC(=O)O)NC(=O)[C@@H](N)CO)C(C)C)C(=O)N[C@H](C(=O)N[C@H](C(=O)NCC(=O)N[C@H](C(=O)N[C@@H](CC(=O)O)C(=O)NCC(=O)N[C@@H](CO)C(=O)N[C@H](C(=O)O)C(C)C)C(C)C)C(C)C)[C@@H](C)O [GK 398-412] (H-SEDVM[Cit]ITVGVDGSV-OH; N-terminus and C-terminus assumed) | > 50
CC(C)[C@H](NC(=O)[C@H](CCC(N)=O)NC(=O)[C@H](CO)NC(=O)[C@@H](NC(=O)[C@H](Cc1ccccc1)NC(=O)[C@H](CCCNC(N)=O)NC(=O)[C@@H](NC(=O)[C@H](CCC(=O)O)NC(=O)[C@H](Cc1ccccc1)NC(=O)[C@H](C)NC(=O)CNC(=O)[C@@H](N)CCCNC(=N)N)[C@@H](C)O)C(C)C)C(=O)N[C@@H](CCC(=O)O)C(=O)N[C@@H](CO)C(=O)N[C@@H](CC(=O)O)C(=O)O [GK 327-341] (H-RGAFET[Cit]FVSQVESD-OH; N-terminus and C-terminus assumed) | > 50
CC[C@H](C)[C@H](NC(=O)[C@H](CC(N)=O)NC(=O)[C@@H](N)Cc1ccc(O)cc1)C(=O)N[C@@H](CC(C)C)C(=O)N[C@@H](CO)C(=O)N[C@H](C(=O)N[C@@H](CC(C)C)C(=O)NCC(=O)N[C@@H](CC(C)C)C(=O)N[C@@H](CCCNC(N)=O)C(=O)N1CCC[C@H]1C(=O)N[C@@H](CO)C(=O)N[C@H](C(=O)N[C@H](C(=O)N[C@@H](CC(=O)O)C(=O)O)[C@@H](C)O)[C@@H](C)O)[C@@H](C)O [GK 349-363] (H-YNILSTLGL[Cit]PSTTD-OH; N-terminus and C-terminus assumed) | > 50

Same assay, conditions: Supplementary Table 3; competition with biotin-HA306-318 0.02 μM; representative values from two replicate experiments; read-out: IC50 (Effect of Citrulline or Arg Substitution)

IC50 [µM] | Structure (SMILES)
0.47 | CC[C@H](C)[C@H](NC(=O)[C@H](CC(N)=O)NC(=O)[C@H](Cc1ccc(O)cc1)NC(=O)[C@@H](NC(=O)[C@H](CCC(N)=O)NC(=O)[C@@H](N)CCCCN)[C@@H](C)CC)C(=O)N[C@@H](CC(C)C)C(=O)N[C@@H](CO)C(=O)N[C@H](C(=O)N[C@@H](CC(C)C)C(=O)NCC(=O)N[C@@H](CC(C)C)C(=O)N[C@@H](CCCNC(=N)N)C(=O)N1CCC[C@H]1C(=O)N[C@@H](CO)C(=O)O)[C@@H](C)O [GK 346 WT] (H-KQIYNILSTLGLRPS-OH)
0.54 | CC[C@H](C)[C@H](NC(=O)[C@H](CC(N)=O)NC(=O)[C@H](Cc1ccc(O)cc1)NC(=O)[C@@H](NC(=O)[C@H](CCC(N)=O)NC(=O)[C@@H](N)CCCCN)[C@@H](C)CC)C(=O)N[C@@H](CC(C)C)C(=O)N[C@@H](CO)C(=O)N[C@H](C(=O)N[C@@H](CC(C)C)C(=O)NCC(=O)N[C@@H](CC(C)C)C(=O)N[C@@H](CCCNC(N)=O)C(=O)N1CCC[C@H]1C(=O)N[C@@H](CO)C(=O)O)[C@@H](C)O [GK 346] (H-KQIYNILSTLGL[Cit]PS-OH)

Same assay, conditions: Table 1; competition with biotinylated HA306-318 reference peptide at 0.02 μM in DR0401-coated wells; europium-streptavidin time resolved fluorescence; concentration that displaces half of the reference peptide; read-out: IC50 (binding to DR0401)

IC50 [µM] | Structure (SMILES)
0.35 | CSCC[C@H](NC(=O)[C@H](C)NC(=O)[C@@H](NC(=O)[C@@H](NC(=O)[C@H](CC(=O)O)NC(=O)[C@H](CCSC)NC(=O)[C@H](CCC(=O)O)NC(=O)[C@H](Cc1ccccc1)NC(=O)[C@H](CC(=O)O)NC(=O)CNC(=O)[C@@H](N)CCCNC(=N)N)C(C)C)C(C)C)C(=O)N[C@H](C(=O)N[C@@H](CC(N)=O)C(=O)N[C@@H](CC(=O)O)C(=O)N[C@H](C(=O)O)[C@@H](C)O)C(C)C [GK 192] (H-RGDFEMDVVAMVNDT-OH)
2 | CC(C)C[C@H](NC(=O)[C@H](CCCNC(=N)N)NC(=O)[C@H](CC(=O)O)NC(=O)[C@H](Cc1ccc(O)cc1)NC(=O)[C@H](CCC(=O)O)NC(=O)[C@H](CC(C)C)NC(=O)[C@@H](N)CC(C)C)C(=O)N[C@H](C(=O)N[C@@H](CC(=O)O)C(=O)N[C@@H](CCC(=O)O)C(=O)N[C@@H](CO)C(=O)N[C@@H](CO)C(=O)N[C@@H](C)C(=O)N[C@@H](CC(N)=O)C(=O)N1CCC[C@H]1C(=O)O)C(C)C [GK 270] (H-LLEYDRLVDESSANP-OH)
5.6 | CC(C)C[C@H](NC(=O)[C@H](CC(C)C)NC(=O)[C@H](Cc1ccccc1)NC(=O)[C@H](CCC(=O)O)NC(=O)[C@H](CC(=O)O)NC(=O)[C@@H](N)CC(C)C)C(=O)N[C@@H](CCC(=O)O)C(=O)N[C@@H](Cc1ccc(O)cc1)C(=O)N[C@@H](CC(=O)O)C(=O)N[C@@H](CCCNC(=N)N)C(=O)N[C@@H](CC(C)C)C(=O)N[C@H](C(=O)N[C@@H](CC(=O)O)C(=O)N[C@@H](CCC(=O)O)C(=O)N[C@@H](CO)C(=O)O)C(C)C [GK 266] (H-LDEFLLEYDRLVDES-OH)
